Reference: patent US6875760B2 (Novo Nordisk A/S, priority 1999, dated 2005)

target: T1, cloned human glucagon receptor (Homo sapiens, UniProt P47871); assay: Glucagon Binding Assay (II); details: plasma membranes of BHK cells expressing the receptor; read-out: Glu Bd Assay (II) IC50
T1 construct: expressed in transfected cells; plasma membrane preparation
T1 sequence (P47871 26-477): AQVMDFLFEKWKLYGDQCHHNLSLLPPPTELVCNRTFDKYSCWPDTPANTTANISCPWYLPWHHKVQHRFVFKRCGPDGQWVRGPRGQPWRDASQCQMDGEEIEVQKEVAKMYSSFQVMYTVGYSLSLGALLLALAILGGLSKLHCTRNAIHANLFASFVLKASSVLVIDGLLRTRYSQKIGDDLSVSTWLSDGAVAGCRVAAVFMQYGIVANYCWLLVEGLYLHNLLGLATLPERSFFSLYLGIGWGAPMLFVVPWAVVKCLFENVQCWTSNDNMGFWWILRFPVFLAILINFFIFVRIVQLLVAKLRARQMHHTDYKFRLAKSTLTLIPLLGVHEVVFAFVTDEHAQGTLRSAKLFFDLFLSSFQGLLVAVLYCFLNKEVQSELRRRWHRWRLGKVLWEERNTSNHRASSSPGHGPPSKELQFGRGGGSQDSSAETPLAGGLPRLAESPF

SMILES | IC50 [nM]
O=C(O)CCNC(=O)c1ccc(CN(CCC(c2ccccc2)c2ccccc2)Cc2ccc3c(c2)OCO3)cc1 [Example 155, 3-(4-{[(3,3-Diphenylpropyl)-(3,4-methylenedioxybenzyl)amino]methyl}benzoylamino)propionic acid] | 823
O=C(O)CCNC(=O)c1ccc(CN(Cc2ccc(OC(F)(F)F)cc2)[C@H]2CC[C@H](C3CCCCC3)CC2)cc1 [Example 387, 3-(4-{[(trans-4-cyclohexylcyclohexyl)-(4-trifluoromethoxybenzyl)amino]methyl}benzoylamino)propionic acid] | 111
CC1C(N(Cc2ccc(C(=O)NCCC(=O)O)cc2)C(=O)Nc2cc(Cl)cc(Cl)c2)CC2CC1C2(C)C (stereo not drawn) [Example 114] | 575
CC1CC(N(Cc2ccc(C(=O)NCCC(=O)O)cc2)C(=O)Nc2cc(Cl)cc(Cl)c2)CC(C)(C)C1 (stereo not drawn) [Example 176, 3-{4-[3-(3,5-Dichlorophenyl)-1-(3,3,5-trimethylcyclohexyl)ureidomethyl]benzoylamino)propionic acid] | 641
CCCCOC(=O)c1ccc(NC(=O)N(Cc2ccc(C(=O)NCCC(=O)O)cc2)C2CCCCCC2)cc1 | 217
O=C(Nc1nn[nH]n1)c1ccc(CN(C(=O)Nc2cccc(I)c2)c2ccc(C3=CCCCC3)cc2)cc1 | 26
COC(=O)CCNC(=O)c1ccc(CN(C(=O)Nc2cc(C(F)(F)F)cc(C(F)(F)F)c2)C2CCC(C(C)(C)C)CC2)cc1 (stereo not drawn) | 101
O=C(NCc1nn[nH]n1)c1ccc(CN(Cc2ccc(OC(F)(F)F)cc2)[C@H]2CC[C@@H](C3CCCCC3)CC2)cc1 [Example 573, 4-({(4-cis-Cyclohexylcyclohexyl)-[4-(trifluoromethoxy)benzyl]amino}methyl)-N-(2H-tetrazol-5-ylmethyl)benzamide] | 152
CC(C)(C)C1CCC(N(Cc2ccc(CNc3nn[nH]n3)cc2)C(=O)Nc2ccc(OC(F)(F)F)cc2)CC1 (mixture of isomers) [Example 579, 1-(4-tert-Butylcyclohexyl)-1-{4-[(2H-tetrazol-5-ylamino)methyl]benzyl}-3-(4-trifluoromethoxyphenyl)urea] | 242
CC1CCC(N(Cc2ccc(C(=O)NCCC(=O)O)cc2)C(=O)Nc2ccc(-c3ccccc3)cc2)CC1 (stereo not drawn) | 516
O=C(O)CCNC(=O)c1ccc(CN(C(=O)Nc2ccc(OC(F)(F)F)cc2)C2CCC3CCCCC3C2)cc1 (stereo not drawn) [drawing 1173] | 426
O=C(O)CCNC(=O)c1ccc(CN(Cc2cccc(Cl)c2)Cc2cccc(Cl)c2)cc1 [Example 154, 3-(4-{[Bis-(3-chlorobenzyl)amino]methyl}benzoylamino)propionic acid] | 167
O=C(O)CCNC(=O)c1ccc(CN(C(=O)Nc2ccc(SC(F)(F)F)cc2)c2ccc(C3CCCCC3)cc2)cc1 [Example 233, 3-{4-[1-(4-Cyclohexylphenyl)-3-(4-trifluoromethylsulfanylphenyl)ureidomethyl]benzoylamino}propionic acid] | 20
O=C(Nc1nn[nH]n1)c1ccc(CN(Cc2ccc(OC(F)(F)F)cc2)[C@H]2CC[C@H](C3CCCCC3)CC2)cc1 [Example 574, 4-({(trans-4-Cyclohexylcyclohexyl)-[4-(trifluoromethoxy)benzyl]amino}methyl)-N-(2H-tetrazol-5-yl)benzamide] | 159
O=C(O)CCNC(=O)c1ccc(CN(Cc2ccc(OC(F)(F)F)cc2)[C@H]2CC[C@@H](C3CCCCC3)CC2)cc1 [Example 570, 3-(4-{[(cis-4-Cyclohexylcyclohexyl)-(4-trifluoromethoxybenzyl)amino]methyl}benzoylamino)propionic acid] | 44
Cc1ccc(CN(CCc2ccc(Cl)cc2Cl)Cc2ccc(C(=O)NCCC(=O)O)cc2)cc1 [Example 153] | 454
CC(C)(C)C1CCC(N(Cc2ccc(C(=O)NCCC(=O)O)cc2)NC(=O)c2ccc(OC(F)(F)F)cc2)CC1 (stereo not drawn) [drawing 1171] | 108
O=C(O)CCNC(=O)c1ccc(CN(C(=O)Nc2cc(Cl)cc(Cl)c2)c2ccc(C3=CCCCC3)cc2)cc1 [Example 605, 3-{4-[1-(4-Cyclohex-1-enylphenyl)-3-(3,5-dichlorophenyl)ureidomethyl]benzoylamino}propionic acid] | 15
Cc1cc(C)c(Cc2ccc(C(=O)NN(Cc3ccc(C(=O)NCCC(=O)O)cc3)[C@H]3CC[C@@H](C(C)(C)C)CC3)o2)c(C)c1 [Example 591, 3-(4-{N-(cis-4-tert-Butylcyclohexyl)-N′-[5-(2,4,6-trimethylbenzyl)furan-2-carbonyl]hydrazinomethyl}benzoylamino)propionic acid] | 4

same assay, conditions: read-out: displacement of the glucagon tracer when screened at 1 μM concentration in the glucagon binding assay II

SMILES | inhibition at 1 µM [%]
CC(C)(C)C1CCC(N(Cc2ccc(C(=O)NCCC(=O)O)cc2)C(=O)NC(=O)Oc2ccccc2)CC1 (stereo not drawn) [Example 208, 3-{4-[1-(4-tert-Butylcyclohexyl)-3-(phenoxycarbonyl)ureidomethyl]benzoylamino}propionic acid] | > 50

same assay, conditions: screened at 1 μM; library compounds; read-out: displacement of the glucagon tracer when screened at 1 μM concentration in the glucagon binding assay II

SMILES | inhibition at 1 µM [%]
CC(C)(C)C1CCC(N(Cc2cccc(C(=O)NCCC(=O)O)c2)C(=O)Nc2ccc(OC(F)(F)F)cc2)CC1 (stereo not drawn) [Example 134, 3-{3-[1-(4-tert-Butylcyclohexyl)-3-(4-trifluoromethoxyphenyl)ureidomethyl]benzoylamino)propionic acid] | > 50
COc1ccc(CN(Cc2ccc(C(=O)NCCC(=O)O)cc2)Cc2ccc(C(C)C)cc2)cc1OC [Example 149, 3-(4-{[(3,4-Dimethoxybenzyl)-(4-isopropylbenzyl)amino]methyl}benzoylamino)propionic acid] | > 50
O=C(O)CCNC(=O)c1ccc(CN(C(=O)NCOc2ccc3ccccc3c2)c2ccc3c(c2)OC(F)(F)C(F)(F)O3)cc1 [Example 205, 3-{4-[3-(Naphthalen-2-yloxymethyl)-1-(2,2,3,3-tetrafluoro-2,3-dihydro-benzo[1,4]dioxin-6-yl)ureidomethyl]benzoylamino}propionic acid] | > 50
CC(C)(C)C1CCC(N(Cc2ccc(C(=O)Nc3ccc4c(c3)OCCO4)cc2)C(=O)Nc2cc(Cl)cc(Cl)c2)CC1 (stereo not drawn) [Example 168, 4-[1-(4-tert-Butylcyclohexyl)-3-(3,5-dichlorophenyl)ureidomethyl]-N-(2,3-dihydro-1,4-benzodioxin-6-yl)benzamide] | > 50
COc1ccc(CN(Cc2ccc(C(=O)NCCC(=O)O)cc2)Cc2cccc(Oc3cccc(C(F)(F)F)c3)c2)cc1OC [Example 151, 3-(4-{[(3,4-Dimethoxybenzyl)-(3-[3-trifluoromethylphenoxy]benzyl)amino]methyl}benzoylamino)propionic acid] | > 50
O=C(O)CCCOc1ccc(CN(C(=O)Nc2ccc(C(=O)O)cc2)c2ccc(C3CCCCC3)cc2)cc1 [Example 218, 4-[3-[4-(3-Carboxypropoxy)benzyl]-3-(4-cyclohexylphenyl)ureido]benzoic acid] | > 50
CC1(C)C2CCC(CN(Cc3ccc(OCCCC(=O)O)cc3)C(=O)Nc3ccc(Cl)c(C(F)(F)F)c3)C1C2 (stereo not drawn) [Example 215, 4-{4-[3-(4-Chloro-3-trifluoromethylphenyl)-1-(6,6-dimethylbicyclo[3.1.1]hept-2-ylmethyl)ureidomethyl]phenoxy}butyric acid] | > 50
O=C(O)CCN1C(=O)c2ccc(CN(C(=O)Nc3ccc(OC(F)(F)F)cc3)c3ccc4nc(S)sc4c3)cc2C1=O [Example 228, 3-{5-[1-(2-Mercaptobenzothiazol-6-yl)-3-(4-trifluoromethoxyphenyl)ureidomethyl]-1,3-dioxo-1,3-dihydro-isoindol-2-yl}propionic acid] | > 50
CC(C)(C)C1CCC(N(Cc2ccc(C(=O)Nc3ncnc4[nH]ncc34)cc2)C(=O)Nc2cc(Cl)cc(Cl)c2)CC1 (stereo not drawn) [Example 170, 4-[1-(4-tert-Butylcyclohexyl)-3-(3,5-dichlorophenyl)ureidomethyl]-N-(1H-pyrazolo[3,4-d]pyrimidin-4-yl)benzamide] | > 50
O=C(O)CCNC(=O)c1ccc(CN(C(=O)Nc2ccc(Cl)c(C(F)(F)F)c2)c2ccc3c(c2)OC(F)(F)C(F)(F)O3)cc1 [Example 191, 3-{4-[3-(4-Chloro-3-trifluoromethyl-phenyl)-1-(2,2,3,3-tetrafluoro-2,3-dihydrobenzo[1,4]-dioxin-6-yl)ureidomethyl]benzoylamino}propionic acid] | > 50
COc1ccc(CN(Cc2ccc(C(C)C)cc2)Cc2ccc(C(=O)NCCC(=O)O)s2)cc1OC [Example 150, 3-(5-{[(3,4-Dimethoxybenzyl)-(4-isopropylbenzyl)amino]methyl}thiophene-2-carbonylamino)propionic acid] | > 50
O=C(O)CCNC(=O)c1ccc(CN(Cc2ccc(C(F)(F)F)cc2)C(=O)Nc2ccc3ccccc3c2)s1 [Example 128, 3-{5-[1-(4-Trifluoromethylbenzyl)-3-naphthalene-2-ylureidomethyl]thiophene-2-carbonylamino)propionic acid] | > 50
COc1ccc2nc(N(Cc3ccc(OCCCC(=O)O)cc3)C(=O)Nc3ccc(Cl)c(C(F)(F)F)c3)sc2n1 [Example 221, 4-{4-[3-(4-Chloro-3-trifluoromethylphenyl)-1-(5-methoxythiazolo[5,4-b]pyridin-2-yl)ureidomethyl]phenoxy}butyric acid] | > 50
O=C(O)CCNC(=O)c1ccc(CN(CCc2ccccc2)Cc2ccc(Oc3ccccc3)cc2)s1 [Example 146, 3-(5-{[(2-Phenylethyl)-(4-phenoxybenzyl)amino]methyl}thiophene-2-carbonylamino)propionic acid] | > 50
O=C(O)CCNC(=O)c1ccc(CN(Cc2ccc(C(F)(F)F)cc2)C(=O)Nc2ccc(SC(F)(F)F)cc2)cc1 [Example 120, 3-{4-[1-(4-Trifluoromethylbenzyl)-3-(4-trifluoromethylsulfanylphenyl)ureidomethyl]benzoylamino)propionic acid] | > 50
Cc1ccc(CN(CCc2ccc(Cl)cc2Cl)Cc2ccc(C(=O)NCCC(=O)O)s2)cc1 [Example 147, 3-(5-{[(2,4-Dichlorophenylethyl)-(4-methylbenzyl)amino]methyl}thiophene-2-carbonylamino)propionic acid] | > 50
